# Measurements taken from patent publication US8530404B2, “Compounds and methods for treatment of cancer” (FibroGen, Inc., priority 2005, dated 2013).
# Like-named read-outs stand apart in the source and are kept apart here.
# Columns and labels:
# human A549 lung tumors [1] = experiment: Subcutaneously implanted human A549 lung tumor mouse xenograft (Example 2); format: in vivo
# human A549 lung tumors [2] = experiment: as above; format: in vivo; details: for tumor weight at necropsy, Mean / A549 mean tumor volume: 20 mg/kg PO; for increase in mean tumor volume: within 1 week (7 days) from start, 20 mg/kg, vehicle control 45%
# From the text: Immuno-compromised athymic CD-1 nu/nu nude mice males (5-6 weeks old) were used in this study (Charles River Laboratories, Wilmington, Mass.). Animals were maintained in a HEPA-filtered environment during the experimental period. Cages, food, and bedding were autoclaved. Animal diets were obtained from Harlan Teklad (Madison, Wis.). […] A stock tumor was established by subcutaneously injecting a cell suspension into nude mice. The resulting tumor was maintained in nude mice subcutaneously as tumor stock prior to use. Tumor implantation was performed when the stock tumors were in log phase of growth. Before implantation, tumor tissue was harvested from stock mice and placed in RPMI-1640 medium. Necrotic tissues were dissected away and viable tissues were cut into 1-2 mm^2 pieces. Tumor fragments were then transplanted subcutaneously to the right flank of the nude mice. Treatment (administration of compounds of the present invention) was started when the inoculated tumors reached approximately 100 mm^3, and continued for four weeks. […] Sizes of the primary tumors were measured through the skin with calipers once per week. […] Body weight of the mice in each group was also measured once per week during the experimental period. All animals were sacrificed following thirty-two days of treatment. Primary tumors were excised and weighed on an electronic balance. Blood samples were taken during terminal sacrifice and placed in microhematocrit tubes containing EDTA. Complete Blood Counts (CBC) and reticulocyte analysis were performed with the Cell Dyn 3700 analyzer (Abbott Diagnostics), as described by the manufacturer. Procedures were carried out as described above for Example 1, with the following changes. The human H-460 lung cancer cell line was replaced by the human A549 lung cancer cell line. Xenografted H460 tumors are characterized by a high growth rate, while xenografted A549 tumors progress substantially more slowly. A549 has been characterized extensively. […] Hanze et al., (2003) Biochem Biophys Res Commun 312:571-577; Wedge et al., (2002) Cancer Res 62:4645-4655; and Abdollahi et al., (2003) Cancer Res 63:8890-8898.) Compound B treatment groups (6 mg/kg, 20 mg/kg) were replaced by compound D treatment groups (6 mg/kg, 20 mg/kg). Other experimental parameters were identical to those described in Example 1 above.
# BNIP3L gene expression = experiment: In vivo BNIP3L gene expression in Swiss Webster mice (quantitative PCR); details: Mus musculus, iv, 4 h, single 60 mg/kg i.v. dose, four hours after administration, normalized to 18S
# Method: The effects of various compounds of the present invention on the expression of genes associated with tumor growth and progression (e.g., expression of genes associated with anti-proliferative effects) were examined in vivo as follows. In these studies, male Swiss Webster mice (25 g) were administered a single intravenous (i.v.) dose of various compounds (60 mg/kg) of the present invention via the tail vein. Four hours after administration of compound, the kidneys and liver were removed and preserved in RNAlater (Ambion). RNA isolation and cDNA synthesis was carried out as follows. Murine kidney tissue was added to TRIzol (Invitrogen) and homogenized using a 5-mm stainless steel bead for 4 minutes at 25 Hz in a Mixer Mill 300 (Qiagen). Homogenates were extracted with chloroform according to the manufacturer's instructions and aqueous supernatants were isolated. The aqueous supernatants were combined with equal volumes of 70% ethanol and then loaded onto RNeasy Mini spin columns (Qiagen). RNA was isolated according to the manufacturer's instructions.
# Synthesis of cDNA from the isolated total RNA was carried out using Omniscript reverse transcriptase (Qiagen) and random primers according to the manufacturer's instructions. Measurement of gene expression levels in compound-treated animals and in vehicle-treated control animals was performed by quantitative PCR using TaqMan Universal PCR Master Mix (Applied Biosystems) and TaqMan Assay-on-Demand assays (Applied Biosystems) in a Prism 7000 system instrument (Applied Biosystems), according to manufacturer's instructions. The assays used were as follows: 18S ribosomal RNA, Hs99999901_s1; BNIP3, Mm00833810_g1; BNIP3L, Mm00786306_s1; NDRG1, Mm00440447_m1. Each PCR amplification reaction included a standard curve and a water blank. Data for gene expression levels for BNIP3, BNIP3L, and NDRG1 were normalized to that of 18S ribosomal RNA within each sample. Data is presented as fold change in specific mRNA levels relative to that of non-treated control animals.
# CDKN1C gene expression = CDKN1C gene expression in Kelly neuroblastoma cells; format: cell-based; details: Kelly, read-out: fold-increase in CDKN1C mRNA expression
# Method: To identify compounds useful in the methods of the present invention, the following studies were performed. The effect of compounds of the present invention on expression of various genes associated with anti-tumor activity (e.g., genes having anti-proliferative activity, genes having pro-apoptotic activity, genes having anti-tumor activity, etc.). In these experiments, the effect of compounds on BNIP3, BNIP3L, NDRG1, CDKN1C, and REDD1/RTP801 gene expression in various types of cultured tumor cells line was examined, including Hep3B cells (human hepatocellular carcinoma), Kelly neuroblastoma cells, and MCF7 cells (human breast cancer)
# The effects of various compounds of the present invention on the expression of genes associated with tumor growth and progression were examined in Kelly neuroblastoma cells as follows. Kelly neuroblastoma cells were grown in RPMI media. For each experiment, Kelly neuroblastoma cells were added to 96-well tissue culture plates (approximately 40,000 cells per well) such that the plated cells reached confluence the following day. On the following day, the cells were washed and the media replaced with RPMI containing 0.5% FBS. Various compounds of the present invention were added to the cultured cells to a final concentration of 20 μM, and the cells cultured for an additional 20-24 hours. DMSO (0.5%) was added to control cell cultures.
# RNA was isolated from the Kelly neuroblastoma cells using a commercial kit and used for the preparation of cDNA. BNIP3, CDKN1C, and 18S RNA levels were measured using commercial kits (18S, Applied Biosystems cat#4319413E); BNIP3, Applied Biosystems cat#HS00969293 MH). RNA levels for BNIP3 and CDKN1C were normalized to that of 18S RNA and is presented as fold-change compared to that observed in DMSO control cultures. Kelly cell NDRG1 and BNIP3L mRNA levels were measured by Affymetrix microarray in a separate study. Cells were harvested after 6 hours incubation with 20 μM test compound or DMSO (0.5%) as control. RNA was isolated and labeled probes were prepared and hybridized to U133 Plus 2.0 Affymetrix microarrays. Changes in gene expression levels are presented as fold change compared to that of control (0.5% DMSO-treated) cultures.
# [3] = read-out: fold change in BNIP3L mRNA level, kidney
# [4] = read-out: fold change in BNIP3L mRNA level, liver
SMILES,"A549 mean tumor volume (human A549 lung tumors [1]; week 5, 20 mg/kg PO) [mm^3]","A549 mean tumor volume (human A549 lung tumors [1]; week 6, 20 mg/kg PO) [mm^3]","A549 mean tumor volume (human A549 lung tumors [1]; week 7, 20 mg/kg PO) [mm^3]","A549 mean tumor volume (human A549 lung tumors [1]; week 8, 20 mg/kg PO) [mm^3]","A549 mean tumor volume (human A549 lung tumors [1]; week 9, 20 mg/kg PO) [mm^3]","tumor weight at necropsy, Mean (human A549 lung tumors [2]) [g]",A549 mean tumor volume (human A549 lung tumors [2]; week 0) [mm^3],A549 mean tumor volume (human A549 lung tumors [2]; week 1) [mm^3],A549 mean tumor volume (human A549 lung tumors [2]; week 2) [mm^3],A549 mean tumor volume (human A549 lung tumors [2]; week 3) [mm^3],A549 mean tumor volume (human A549 lung tumors [2]; week 4) [mm^3],fold induction at 60 mg/kg (BNIP3L gene expression; [3]),fold induction at 20 µM (CDKN1C gene expression),fold induction at 60 mg/kg (BNIP3L gene expression; [4]),increase in mean tumor volume (human A549 lung tumors [2]) [%],other results
"O=C(O)CNC(=O)c1nc(Cl)c2ccccc2c1O [Compound A, [(1-Chloro-4-hydroxy-isoquinoline-3-carbonyl)-amino]-acetic acid]",375,428,523,547,615,0.76,100,138,173,241,328,–,–,–,–,"tumor weight at necropsy, Mean (human A549 lung tumors [1]; 60 mg/kg PO): 0.81 g; A549 mean tumor volume (human A549 lung tumors [1]; week 0, 60 mg/kg PO): 105 mm^3; A549 mean tumor volume (human A549 lung tumors [1]; week 1, 60 mg/kg PO): 133 mm^3; A549 mean tumor volume (human A549 lung tumors [1]; week 2, 60 mg/kg PO): 175 mm^3; A549 mean tumor volume (human A549 lung tumors [1]; week 3, 60 mg/kg PO): 234 mm^3; A549 mean tumor volume (human A549 lung tumors [1]; week 4, 60 mg/kg PO): 324 mm^3; A549 mean tumor volume (human A549 lung tumors [1]; week 5, 60 mg/kg PO): 348 mm^3; A549 mean tumor volume (human A549 lung tumors [1]; week 6, 60 mg/kg PO): 425 mm^3; A549 mean tumor volume (human A549 lung tumors [1]; week 7, 60 mg/kg PO): 514 mm^3; A549 mean tumor volume (human A549 lung tumors [1]; week 8, 60 mg/kg PO): 538 mm^3; A549 mean tumor volume (human A549 lung tumors [1]; week 9, 60 mg/kg PO): 597 mm^3"
"C[C@H](NC(=O)c1ncc2cc(Oc3ccccc3)ccc2c1O)C(=O)O [Compound B, (S)-2-[(4-Hydroxy-7-phenoxy-isoquinoline-3-carbonyl)-amino]-propionic acid]",–,–,–,–,–,–,–,–,–,–,–,1.2,91,–,–,–
"COc1ccc(Oc2ccc3c(O)c(C(=O)NCC(=O)O)ncc3c2)cc1 [Compound C, {[4-Hydroxy-7-(4-methoxy-phenoxy)-isoquinoline-3-carbonyl]-amino}-acetic acid]",246,304,341,402,429,0.50,102,124,152,180,208,0.9,49,2.6,22,–
"Cc1nc(C(=O)NCC(=O)O)c(O)c2ccc(Oc3ccccc3)cc12 [Compound D, [(4-Hydroxy-1-methyl-7-phenoxy-isoquinoline-3-carbonyl)-amino]-acetic acid]",272,304,373,411,466,0.58,106,126,148,193,227,5,382,1.2,20,"tumor weight at necropsy, Mean (human A549 lung tumors [1]; 6 mg/kg PO): 0.51 g; A549 mean tumor volume (human A549 lung tumors [1]; week 0, 6 mg/kg PO): 109 mm^3; A549 mean tumor volume (human A549 lung tumors [1]; week 1, 6 mg/kg PO): 137 mm^3; A549 mean tumor volume (human A549 lung tumors [1]; week 2, 6 mg/kg PO): 178 mm^3; A549 mean tumor volume (human A549 lung tumors [1]; week 3, 6 mg/kg PO): 209 mm^3; A549 mean tumor volume (human A549 lung tumors [1]; week 4, 6 mg/kg PO): 263 mm^3; A549 mean tumor volume (human A549 lung tumors [1]; week 5, 6 mg/kg PO): 292 mm^3; A549 mean tumor volume (human A549 lung tumors [1]; week 6, 6 mg/kg PO): 339 mm^3; A549 mean tumor volume (human A549 lung tumors [1]; week 7, 6 mg/kg PO): 375 mm^3; A549 mean tumor volume (human A549 lung tumors [1]; week 8, 6 mg/kg PO): 431 mm^3; A549 mean tumor volume (human A549 lung tumors [1]; week 9, 6 mg/kg PO): 476 mm^3"
"O=C(O)CNC(=O)c1ncc2cc(Oc3ccc(F)cc3)ccc2c1O [Compound E, {[7-(4-fluoro-phenoxy)-4-hydroxy-isoquinoline-3-carbonyl]-amino}-acetic acid]",–,–,–,–,–,–,–,–,–,–,–,0.8,184,1.7,–,–
